Values after ≈ are worked out from the molar mass of the structure shown.
Tests used:
Test in all cases: microbe, parasite or virus in culture
K. pneumoniae 113250 = format: cell-based, Klebsiella pneumoniae; conditions: K. pneumoniae 113250; for MIC: Klebsiella pneumoniae, 18 h, read-out: MICs of various antibiotics
Procedure: (§1) The in vitro antibacterial activity of the UTBLPs was assessed against wild-type and clinically isolated bacterial strains. To obtain the MIC of the compounds, the microbroth dilution susceptibility assay was performed according to the Clinical and Laboratory Standards Institute (CLSI, Wayne, PA, USA) guidelines and as previously described. Briefly, the compounds at varying concentrations were incubated with bacterial inoculum (5 × 10^5 CFU/mL final concentration) at 37 °C for 18 h. Growth in the form of turbidity was confirmed using an EMax Plus microplate reader (Molecular Devices, San Jose, CA, USA) at 590 nm.

E. cloacae 118564 = format: cell-based, Enterobacter cloacae; conditions: E. cloacae 118564; for MIC: Enterobacter cloacae, 18 h, read-out: MICs of various antibiotics
Procedure: as §1

E. coli 94393 = format: cell-based, Escherichia coli; conditions: E. coli 94393 (mcr-1 +); for MIC: Escherichia coli, 18 h, read-out: MICs of various antibiotics
Procedure: as §1

E. coli 94474 = format: cell-based, Escherichia coli; conditions: E. coli 94474 (mcr-1 +); for MIC: Escherichia coli, 18 h, read-out: MICs of various antibiotics
Procedure: as §1

[1] = tested on: P. aeruginosa PA259-96196; format: cell-based, Pseudomonas aeruginosa; conditions: P. aeruginosa 259-96196; for MIC: Pseudomonas aeruginosa, PA25996196, 18 h, read-out: MICs of various antibiotics
Procedure: as §1

[2] = tested on: P. aeruginosa PA262-101856; format: cell-based, Pseudomonas aeruginosa; conditions: P. aeruginosa 262-101856; for MIC: Pseudomonas aeruginosa, PA262101856, 18 h, read-out: MICs of various antibiotics
Procedure: as §1

A. baumannii AB027 = format: cell-based, Acinetobacter baumannii; conditions: A. baumannii AB027; for MIC: Acinetobacter baumannii, 18 h, read-out: MICs of various antibiotics
Procedure: as §1

A. baumannii AB92247 = format: cell-based, Acinetobacter baumannii; conditions: A. baumannii 92247; for MIC: Acinetobacter baumannii, AB92247, 18 h, read-out: MICs of various antibiotics
Procedure: as §1

Row | Molecule | MIC (K. pneumoniae 113250) [µg/mL] | MIC (E. cloacae 118564) [µg/mL] | MIC (E. coli 94393) [µg/mL] | MIC (E. coli 94474) [µg/mL] | MIC [1] [µg/mL] | MIC [2] [µg/mL] | MIC (A. baumannii AB027) [µg/mL] | MIC (A. baumannii AB92247) [µg/mL] | MICs of various antibiotics (K. pneumoniae 113250) [µg/mL] | MICs of various antibiotics (E. cloacae 118564) [µg/mL] | MICs of various antibiotics (E. coli 94393) [µg/mL] | MICs of various antibiotics (E. coli 94474) [µg/mL] | MICs of various antibiotics [1] [µg/mL] | MICs of various antibiotics [2] [µg/mL] | MICs of various antibiotics (A. baumannii AB027) [µg/mL] | MICs of various antibiotics (A. baumannii AB92247) [µg/mL]
1 | NCC[C@H](O)C(=O)N[C@@H]1C[C@H](N)[C@@H](O[C@H]2O[C@H](CN)[C@@H](O)[C@H](O)[C@H]2O)[C@H](O)[C@H]1O[C@H]1O[C@H](CO)[C@@H](O)[C@H](N)[C@H]1O [AMK, amikacin] | ≤ 1 | 2 (≈ 3.42 µM) | 2 (≈ 3.42 µM) | 2 (≈ 3.42 µM) | > 64 | > 64 | > 64 | < 1 |  |  |  |  |  |  |  | 
2 | Cc1nnc(SCC2=C(C(=O)O)N3C(=O)[C@@H](NC(=O)Cn4cnnn4)[C@H]3SC2)s1 [CFZ, cefazolin] | 1 (≈ 2.2 µM) | > 128 | 1 (≈ 2.2 µM) | 4 (≈ 8.8 µM) | > 128 | > 128 | > 128 | 128 (≈ 282 µM) |  |  |  |  |  |  |  | 
3 | CO/N=C(\C(=O)N[C@@H]1C(=O)N2C(C(=O)[O-])=C(C[N+]3(C)CCCC3)CS[C@H]12)c1csc(N)n1 [CPM, cefepime] | 1 (≈ 2.08 µM) | 0.25 (≈ 0.52 µM) | ≤ 0.25 | ≤ 0.25 | > 64 | 32 (≈ 66.6 µM) | > 128 | 4 (≈ 8.32 µM) |  |  |  |  |  |  |  | 
4 | CO[C@@]1(NC(=O)Cc2cccs2)C(=O)N2C(C(=O)O)=C(COC(N)=O)CS[C@@H]21 [FOX, cefoxitin] | 1 (≈ 2.34 µM) | > 32 | 4 (≈ 9.36 µM) | 16 (≈ 37.4 µM) | > 32 | > 32 |  | 32 (≈ 74.9 µM) |  |  |  |  |  |  |  | 
5 | C[C@@H](O)[C@H]1C(=O)N2C(C(=O)O)=C(S[C@@H]3CN[C@H](C(=O)N(C)C)C3)[C@H](C)[C@H]12 [MER, meropenem] | ≤ 0.03 | 0.12 (≈ 0.313 µM) | ≤ 0.03 | ≤ 0.03 | 1020 (≈ 2670 µM) | 32 (≈ 83.4 µM) | 16 (≈ 41.7 µM) | 4 (≈ 10.4 µM) |  |  |  |  |  |  |  | 
6 | colistin [CST] |  |  |  |  |  |  |  |  | > 16 | > 16 | 4 | 16 | 1 | 1 | 0.25 | 4

From article PMC8963254, “Effects of Lysine N-ζ-Methylation in Ultrashort Tetrabasic Lipopeptides (UTBLPs) on the Potentiation of Rifampicin, Novobiocin, and Niclosamide in Gram-Negative Bacteria” (Antibiotics, 2022)
